Results taken from publication PMC4701174, “Novel Characteristics of Trypanosoma brucei Guanosine 5'-monophosphate Reductase Distinct from Host Animals” (PLoS Neglected Tropical Diseases, 2016).

Assays:
[1] = target: T1, T. brucei guanosine 5'-monophosphate reductase (TbGMPR) (Trypanosoma brucei, UniProt Q57ZS7); assay: NADPH consumption at […] nm, Hill fit; type: biochemical
T1 construct: gene Tb05.1P6.110; recombinant TbGMPR coding region, GST fusion in E. coli, tag cleaved with PreScission protease

[2] = target: T2, HsGMPR2 (human GMPR type 2) (Homo sapiens, UniProt Q9P2T1); assay: NADPH consumption at […] nm, Hill fit; type: biochemical
T2 construct: gene GMPR2; recombinant
T2 sequence (Q9P2T1 1-348): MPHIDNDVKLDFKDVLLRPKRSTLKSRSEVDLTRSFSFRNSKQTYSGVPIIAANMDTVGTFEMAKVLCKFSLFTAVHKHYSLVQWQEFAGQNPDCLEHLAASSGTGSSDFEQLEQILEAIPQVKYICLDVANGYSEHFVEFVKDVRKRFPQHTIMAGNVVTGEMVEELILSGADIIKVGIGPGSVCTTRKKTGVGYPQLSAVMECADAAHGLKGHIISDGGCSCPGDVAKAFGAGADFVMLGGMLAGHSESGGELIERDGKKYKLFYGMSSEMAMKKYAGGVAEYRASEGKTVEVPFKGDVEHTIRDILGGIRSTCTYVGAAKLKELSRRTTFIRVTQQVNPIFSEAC

[3] = target: T3, HsGMPR1 (human GMPR type 1) (Homo sapiens, UniProt P36959); assay: NADPH consumption at […] nm, Hill fit; type: biochemical
T3 construct: recombinant
T3 sequence (P36959 1-345): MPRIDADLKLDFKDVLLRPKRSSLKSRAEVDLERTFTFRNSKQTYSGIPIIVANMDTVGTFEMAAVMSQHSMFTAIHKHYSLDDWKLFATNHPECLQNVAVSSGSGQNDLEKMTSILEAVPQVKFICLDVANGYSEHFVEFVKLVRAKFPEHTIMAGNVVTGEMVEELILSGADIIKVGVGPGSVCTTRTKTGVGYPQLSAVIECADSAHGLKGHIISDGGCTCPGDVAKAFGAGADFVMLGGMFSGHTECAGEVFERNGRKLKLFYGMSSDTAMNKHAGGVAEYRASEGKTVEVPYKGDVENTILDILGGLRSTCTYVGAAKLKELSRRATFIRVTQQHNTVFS

[4] = target: T1, T. brucei guanosine 5'-monophosphate reductase (TbGMPR); assay: NADPH consumption at […] nm, Lineweaver-Burk, competitive inhibition fit (IC50 […]); type: biochemical
purified protein [5] = substrate: NC(=O)C1=CN([C@@H]2O[C@H](COP(=O)(O)OP(=O)(O)OC[C@H]3O[C@@H](n4cnc5c(N)ncnc54)[C@H](OP(=O)(O)O)[C@@H]3O)[C@@H](O)[C@H]2O)C=CC1; assay: purified protein; type: biochemical, Trypanosoma brucei; settings: varied: cofactor
purified protein [6] = substrate: Nc1nc2c(ncn2[C@@H]2O[C@H](COP(=O)(O)O)[C@@H](O)[C@H]2O)c(=O)[nH]1; assay: purified protein; type: biochemical, Trypanosoma brucei; settings: NADPH
purified protein [7] = substrate: NC(=O)C1=CN([C@@H]2O[C@H](COP(=O)(O)OP(=O)(O)OC[C@H]3O[C@@H](n4cnc5c(N)ncnc54)[C@H](OP(=O)(O)O)[C@@H]3O)[C@@H](O)[C@H]2O)C=CC1; assay: purified protein; settings: varied: cofactor
purified protein [8] = substrate: Nc1nc2c(ncn2[C@@H]2O[C@H](COP(=O)(O)O)[C@@H](O)[C@H]2O)c(=O)[nH]1; assay: purified protein; type: biochemical, Homo sapiens; settings: NADPH

Molecule: NC(=O)c1ncn([C@@H]2O[C@H](COP(=O)(O)O)[C@@H](O)[C@H]2O)c1O [MZP, mizoribine 5’-monophosphate]
- IC50 [1]: 23.7 ± 1.9 µM
- IC50 [2]: 69.3 ± 7.8 µM
- IC50 [3]: 120 ± 16.1 µM

Molecule: NC(=O)c1ncn([C@@H]2O[C@H](COP(=O)(O)O)[C@@H](O)[C@H]2O)n1 [RMP, ribavirin 5'-monophosphate]
- Ki [4]: 4.46 ± 0.46 µM

B1: T. brucei guanosine 5'-monophosphate reductase (TbGMPR) (Trypanosoma brucei brucei TREU927) (protein)
chain: MSFNESASIPTGLTYDDVLIIPQHSRVTSRKEVNTTTRLSRNVKLSIPIVASNMDTVCEQRMAVAMAREGGIGILHRFCSIEEQCAMLREVKRAQSFLIESPRIILPHETAREAWEGLNWKGRVGGVGCLLVVNCKNERKLLGIITRHDLKLADESTTVESLMTPVDKMVVSTNTSISLEEVTHLMRKGRTANVPIVGQNGQLLYLVTLSDVVKLRKNKQASLDSRGRLLVGAAVGVKKDDMNRAIRLVEAGADVLVVDIAHGHSDLCINMVKRLKGDPRTASVDIIAGNIASAEAAEALIDAGADGLKIGVGPGSICITRLVAGAGVPQLSAVLACTRVARRRGVPCIADGGLRTSGDISKAIGAGADTVMLGNMLAGTDEAPGRVLVKDGQKVKIIRGMAGFGANLSKAERERTQDEDVFSSLVPEGVEGSVACKGPVGPIVRQLVGGLRSGMSYSGAKSIEEMQRRTRFVRMTGAGLRESGSHGVAKL
notes: recombinant TbGMPR coding region, GST fusion in E. coli, tag cleaved with PreScission protease
- Km (purified protein [5]): 12.3 ± 0.8 µM
- Km (purified protein [6]): 89.3 ± 9.0 µM

B2: HsGMPR1 (human GMPR type 1) (Homo sapiens) (protein)
chain: MPRIDADLKLDFKDVLLRPKRSSLKSRAEVDLERTFTFRNSKQTYSGIPIIVANMDTVGTFEMAAVMSQHSMFTAIHKHYSLDDWKLFATNHPECLQNVAVSSGSGQNDLEKMTSILEAVPQVKFICLDVANGYSEHFVEFVKLVRAKFPEHTIMAGNVVTGEMVEELILSGADIIKVGVGPGSVCTTRTKTGVGYPQLSAVIECADSAHGLKGHIISDGGCTCPGDVAKAFGAGADFVMLGGMFSGHTECAGEVFERNGRKLKLFYGMSSDTAMNKHAGGVAEYRASEGKTVEVPYKGDVENTILDILGGLRSTCTYVGAAKLKELSRRATFIRVTQQHNTVFS
notes: recombinant
- Km (purified protein [7]): 34.8 ± 4.3 µM
- Km (purified protein [8]): 22.1 ± 2.2 µM
